Measured values taken from patent US9738655B2, “Tetrahydroisoquinolines containing substituted azoles as factor XIa inhibitors” (BRISTOL-MYERS SQUIBB COMPANY, priority 2013, dated 2017).
Where a name gives a salt, the structure may show the parent alone. Read-outs that look alike come from different tables or passages of the source.

Experiments:
[1] = target: purified human plasma kallikrein (Homo sapiens (Human), UniProt P03952); test: Plasma kallikrein enzyme inhibition assay (chromogenic substrate S-2302); format: biochemical
[2] = target: purified human Factor XIa (Homo sapiens (Human), UniProt P03951); test: Factor XIa enzyme inhibition assay (chromogenic substrate S-2366)
[3] = measured at 25° C. (no asterisk)
[4] = read-out: Factor XIa Ki, measured at 25° C.

purified human Factor XIa, sequence (P03951 388-625): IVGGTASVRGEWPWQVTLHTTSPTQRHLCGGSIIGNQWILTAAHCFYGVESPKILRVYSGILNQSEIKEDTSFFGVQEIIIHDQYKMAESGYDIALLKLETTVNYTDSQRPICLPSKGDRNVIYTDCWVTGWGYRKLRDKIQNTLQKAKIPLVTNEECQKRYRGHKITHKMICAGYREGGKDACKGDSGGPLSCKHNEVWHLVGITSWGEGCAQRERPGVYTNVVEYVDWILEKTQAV
purified human Factor XIa, sequence (P03951 19-387 partner): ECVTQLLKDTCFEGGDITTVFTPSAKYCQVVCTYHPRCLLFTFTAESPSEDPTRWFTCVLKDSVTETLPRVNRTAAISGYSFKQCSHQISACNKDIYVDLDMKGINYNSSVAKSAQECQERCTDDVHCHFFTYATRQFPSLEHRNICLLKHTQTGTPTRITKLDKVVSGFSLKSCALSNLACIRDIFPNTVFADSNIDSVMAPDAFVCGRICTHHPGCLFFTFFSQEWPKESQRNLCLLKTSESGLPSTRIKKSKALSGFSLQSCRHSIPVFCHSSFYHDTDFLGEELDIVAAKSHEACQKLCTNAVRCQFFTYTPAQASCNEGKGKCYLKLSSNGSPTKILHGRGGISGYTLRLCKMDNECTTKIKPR
purified human plasma kallikrein, sequence (P03952 391-638): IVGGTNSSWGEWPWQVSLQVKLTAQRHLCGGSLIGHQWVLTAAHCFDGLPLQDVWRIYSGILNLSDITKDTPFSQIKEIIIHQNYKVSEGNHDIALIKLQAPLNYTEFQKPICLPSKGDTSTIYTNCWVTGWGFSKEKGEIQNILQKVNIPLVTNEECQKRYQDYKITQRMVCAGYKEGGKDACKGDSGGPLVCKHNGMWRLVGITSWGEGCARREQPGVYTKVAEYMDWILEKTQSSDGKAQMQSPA
purified human plasma kallikrein, sequence (P03952 20-390 partner): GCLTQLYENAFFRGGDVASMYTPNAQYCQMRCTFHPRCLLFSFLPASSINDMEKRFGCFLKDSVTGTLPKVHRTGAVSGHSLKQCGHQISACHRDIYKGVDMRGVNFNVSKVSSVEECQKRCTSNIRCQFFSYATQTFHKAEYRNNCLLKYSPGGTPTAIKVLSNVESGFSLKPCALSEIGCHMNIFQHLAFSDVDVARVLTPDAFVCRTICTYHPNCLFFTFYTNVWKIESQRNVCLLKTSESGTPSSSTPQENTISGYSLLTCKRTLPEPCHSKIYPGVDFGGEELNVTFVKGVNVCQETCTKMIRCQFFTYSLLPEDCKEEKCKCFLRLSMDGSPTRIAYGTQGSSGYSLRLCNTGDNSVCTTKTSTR

Structure (SMILES) | Ki [1, 3] | Ki [2, 4] | Ki ([1]; measured at 37° C. (*)) | Ki [2] | Ki ([2]; read-out: Factor XIa Ki)
O=C(O)c1ccc(NC(=O)C2c3ccccc3CCN2C(=O)c2cn(-c3cccc(Cl)c3F)nn2)cc1 (stereo not shown) [Example 1, 4-(2-(1-(3-Chloro-2-fluorophenyl)-1H-1,2,3-triazole-4-carbonyl)-1,2,3,4-tetrahydroisoquinoline-1-carboxamido)benzoic acid] | 20.8 nM | 13.5 nM |  |  | 
O=C(O)c1ccc(NC(=O)[C@@H]2c3ccccc3CCN2C(=O)c2cn(-c3cccc(Cl)c3F)nn2)cc1 [Example 3, (S)-4-(2-(1-(3-Chloro-2-fluorophenyl)-1H-1,2,3-triazole-4-carbonyl)-1,2,3,4-tetrahydroisoquinoline-1-carboxamido)benzoic acid] | 13.1 nM | 6.44 nM |  |  | 
CN(C)CCNC(=O)c1ccc(-c2cccc3c2CCN(C(=O)c2cn(-c4cccc(Cl)c4F)nn2)C3C(=O)Nc2ccc(C(=O)O)cc2)cc1 (stereo not shown) [Example 6, 4-(2-(1-(3-Chloro-2-fluorophenyl)-1H-1,2,3-triazole-4-carbonyl)-5-(4-((2-(dimethylamino)ethyl)carbamoyl)phenyl)-1,2,3,4-tetrahydroisoquinoline-1-carboxamido)benzoic acid] | 2.4 nM | < 5 nM |  |  | 
Cc1c(C(=O)N2CCc3c(-c4ccc(C(=O)NCCN(C)C)cc4)cccc3C2C(=O)Nc2ccc(C(=O)O)cc2)nnn1-c1cccc(Cl)c1F (stereo not shown) [Example 7, 4-(2-(1-(3-Chloro-2-fluorophenyl)-5-methyl-1H-1,2,3-triazole-4-carbonyl)-5-(4-((2-(dimethylamino)ethyl)carbamoyl)phenyl)-1,2,3,4-tetrahydroisoquinoline-1-carboxamido)benzoic acid, TFA salt] | 29.9 nM | < 5 nM |  |  | 
CN(C)CCNC(=O)c1ccc(-c2cccc3c2CCN(C(=O)c2cnn(-c4cccc(Cl)c4F)c2)C3C(=O)Nc2ccc(C(=O)O)cc2)cc1 (stereo not shown) [Example 8, 4-(2-(1-(3-Chloro-2-fluorophenyl)-1H-pyrazole-4-carbonyl)-5-(4-((2-(dimethylamino)ethyl)carbamoyl)phenyl)-1,2,3,4-tetrahydroisoquinoline-1-carboxamido)benzoic acid, TFA salt] | 3.37 nM | < 5 nM |  |  | 
CN(C)CCNC(=O)c1ccc(-c2cccc3c2CCN(C(=O)c2cn(-c4cccc(Cl)c4F)nn2)[C@@H]3C(=O)Nc2ccc(C(=O)O)cc2)cc1 [Example 10, (S)-4-(2-(1-(3-Chloro-2-fluorophenyl)-1H-1,2,3-triazole-4-carbonyl)-5-(4-((2-(dimethylamino)ethyl)carbamoyl)phenyl)-1,2,3,4-tetrahydroisoquinoline-1-carboxamido)benzoic acid, TFA salt] | 1.08 nM | < 5 nM |  |  | 
CN(C)CCNC(=O)c1ccc(-c2cccc3c2CCN(C(=O)c2cn(-c4cccc(Cl)c4F)nn2)[C@H]3C(=O)Nc2ccc(C(=O)O)cc2)cc1 [Example 11, (R)-4-(2-(1-(3-Chloro-2-fluorophenyl)-1H-1,2,3-triazole-4-carbonyl)-5-(4-((2-(dimethylamino)ethyl)carbamoyl)phenyl)-1,2,3,4-tetrahydroisoquinoline-1-carboxamido)benzoic acid TFA salt] | 1060 nM |  |  |  | 165 nM
Nc1ncc(-c2cccc3c2CCN(C(=O)c2cn(-c4cccc(Cl)c4F)nn2)C3C(=O)Nc2ccc(C(=O)O)cc2)cn1 (stereo not shown) [Example 30, 4-(5-(2-aminopyrimidin-5-yl)-2-(1-(3-chloro-2-fluorophenyl)-1H-1,2,3-triazole-4-carbonyl)-1,2,3,4-tetrahydroisoquinoline-1-carboxamido)benzoic acid, TFA salt] | 15.7 nM | < 5 nM |  |  | 
O=C(O)c1ccc(NC(=O)C2c3cccc(-c4cccnc4)c3CCN2C(=O)c2cn(-c3cccc(Cl)c3F)nn2)cc1 (stereo not shown) [Example 33, 4-(2-(1-(3-chloro-2-fluorophenyl)-1H-1,2,3-triazole-4-carbonyl)-5-(pyridin-3-yl)-1,2,3,4-tetrahydroisoquinoline-1-carboxamido)benzoic acid, TFA salt] | 9.54 nM | < 5 nM |  |  | 
O=C(O)c1ccc(NC(=O)C2c3cccc(-c4cncc(F)c4)c3CCN2C(=O)c2cn(-c3cccc(Cl)c3F)nn2)cc1 (stereo not shown) [Example 35, 4-(2-(1-(3-chloro-2-fluorophenyl)-1H-1,2,3-triazole-4-carbonyl)-5-(5-fluoropyridin-3-yl)-1.2,3,4-tetrahydroisoquinoline-1-carboxamido)benzoic acid, TFA salt] | 22.9 nM | < 5 nM |  |  | 

Now from value to compound, other results behind:

Ki [1, 3] | Ki [2, 4] | Ki ([1]; measured at 37° C. (*)) | Ki [2] | Structure (SMILES) | Ki ([2]; read-out: Factor XIa Ki)
9.88 nM | < 5 nM |  |  | O=C(O)c1ccc(NC(=O)C2c3cccc(-c4cncnc4)c3CCN2C(=O)c2cn(-c3cccc(Cl)c3F)nn2)cc1 (stereo not shown) [Example 12, 4-(2-(1-(3-Chloro-2-fluorophenyl)-1H-1,2,3-triazole-4-carbonyl)-5-(pyrimidin-5-yl)-1,2,3,4-tetrahydroisoquinoline-1-carboxamido)benzoic acid] | 
427 nM | 11.9 nM |  |  | O=C(O)c1ccc(NC(=O)[C@H]2c3cccc(-c4cncnc4)c3CCN2C(=O)c2cn(-c3cccc(Cl)c3F)nn2)cc1 [Example 13, (R)-4-(2-(1-(3-Chloro-2-fluorophenyl)-1H-1,2,3-triazole-4-carbonyl)-5-(pyrimidin-5-yl)-1,2,3,4-tetrahydroisoquinoline-1-carboxamido)benzoic acid] | 
6.27 nM | < 5 nM |  |  | O=C(O)c1ccc(NC(=O)[C@@H]2c3cccc(-c4cncnc4)c3CCN2C(=O)c2cn(-c3cccc(Cl)c3F)nn2)cc1 [Example 14, (S)-4-(2-(1-(3-Chloro-2-fluorophenyl)-1H-1,2,3-triazole-4-carbonyl)-5-(pyrimidin-5-yl)-1,2,3,4-tetrahydroisoquinoline-1-carboxamido)benzoic acid] | 
219 nM | 9.12 nM |  |  | N#Cc1ccc(-c2cccc3c2CCN(C(=O)c2cn(-c4cccc(Cl)c4F)nn2)[C@H]3C(=O)Nc2ccc(C(=O)O)cc2)cn1 [Example 15, (R)-4-(2-(1-(3-Chloro-2-fluorophenyl)-1H-1,2,3-triazole-4-carbonyl)-5-(6-cyanopyridin-3-yl)-1,2,3,4-tetrahydroisoquinoline-1-carboxamido)benzoic acid, TFA salt] | 
4.55 nM | < 5 nM |  |  | N#Cc1ccc(-c2cccc3c2CCN(C(=O)c2cn(-c4cccc(Cl)c4F)nn2)[C@@H]3C(=O)Nc2ccc(C(=O)O)cc2)cn1 [Example 16, (S)-4-(2-(1-(3-Chloro-2-fluorophenyl)-1H-1,2,3-triazole-4-carbonyl)-5-(6-cyanopyridin-3-yl)-1,2,3,4-tetrahydroisoquinoline-1-carboxamido)benzoic acid, TFA salt] | 
 | 3550 nM | > 4340 nM |  | COC(=O)c1ccc(NC(=O)[C@H]2c3cccc(-c4cncnc4)c3CCN2C(=O)c2cn(-c3cccc(Cl)c3F)nn2)cc1 [Example 25, (R)-Methyl 4-(2-(1-(3-chloro-2-fluorophenyl)-1H-1,2,3-triazole-4-carbonyl)-5-(pyrimidin-5-yl)-1,2,3,4-tetrahydroisoquinoline-1-carboxamido)benzoate] | 
 | 7.07 nM | 62 nM |  | COC(=O)c1ccc(NC(=O)[C@@H]2c3cccc(-c4cncnc4)c3CCN2C(=O)c2cn(-c3cccc(Cl)c3F)nn2)cc1 [Example 26, (S)-Methyl 4-(2-(1-(3-chloro-2-fluorophenyl)-1H-1,2,3-triazole-4-carbonyl)-5-(pyrimidin-5-yl)-1,2,3,4-tetrahydroisoquinoline-1-carboxamido)benzoate] | 
 | < 5 nM | 46.8 nM |  | CNC(=O)c1ccc(-c2cccc3c2CCN(C(=O)c2cn(-c4cccc(Cl)c4F)nn2)[C@@H]3C(=O)Nc2ccc(C(=O)OC)cc2)cn1 [Example 27, (S)-Methyl 4-(2-(1-(3-chloro-2-fluorophenyl)-1H-1,2,3-triazole-4-carbonyl)-5-(6-(methylcarbamoyl)pyridin-3-yl)-1,2,3,4-tetrahydroisoquinoline-1-carboxamido)benzoate, TFA salt] | 
 | < 5 nM | 55.8 nM |  | COC(=O)c1ccc(NC(=O)[C@@H]2c3cccc(-c4cncnc4)c3CCN2C(=O)[C@H]2CC(c3cccc(Cl)c3F)=NO2)cc1 [Example 28, Methyl 4-((S)-2-((R)-3-(3-chloro-2-fluorophenyl)-4,5-dihydroisoxazole-5-carbonyl)-5-(pyrimidin-5-yl)-1,2,3,4-tetrahydroisoquinoline-1-carboxamido)benzoate] | 
 | 58.9 nM | 1200 nM |  | COC(=O)c1ccc(NC(=O)[C@H]2c3cccc(-c4cncnc4)c3CCN2C(=O)[C@H]2CC(c3cccc(Cl)c3F)=NO2)cc1 [Example 29, Methyl 4-((R)-2-((R)-3-(3-chloro-2-fluorophenyl)-4,5-dihydroisoxazole-5-carbonyl)-5-(pyrimidin-5-yl)-1,2,3,4-tetrahydroisoquinoline-1-carboxamido)benzoate] | 
19.9 nM |  |  | < 5 nM | COc1ncc(-c2cccc3c2CCN(C(=O)c2cn(-c4cccc(Cl)c4F)nn2)C3C(=O)Nc2ccc(C(=O)O)cc2)cn1 (stereo not shown) [Example 31, 4-(2-(1-(3-chloro-2-fluorophenyl)-1H-1,2,3-triazole-4-carbonyl)-5-(2-methoxypyrimidin-5-yl)-1,2,3,4-tetrahydroisoquinoline-1-carboxamido)benzoic acid] | 
17.5 nM |  |  | < 5 nM | N#Cc1ncc(-c2cccc3c2CCN(C(=O)c2cn(-c4cccc(Cl)c4F)nn2)C3C(=O)Nc2ccc(C(=O)O)cc2)cn1 (stereo not shown) [Example 32, 4-(2-(1-(3-chloro-2-fluorophenyl)-1H-1,2,3-triazole-4-carbonyl)-5-(2-cyanopyrimidin-5-yl)-1,2,3,4-tetrahydroisoquinoline-1-carboxamido)benzoic acid] | 
0.46 nM |  |  | < 5 nM | O=C(O)c1ccc(NC(=O)C2c3cccc(-c4cnc(O)nc4)c3CCN2C(=O)c2cn(-c3cccc(Cl)c3F)nn2)cc1 (stereo not shown) [Example 34, 4-(2-(1-(3-chloro-2-fluorophenyl)-1H-1,2,3-triazole-4-carbonyl)-5-(2-hydroxypyrimidin-5-yl)-1,2,3,4-tetrahydroisoquinoline-1-carboxamido)benzoic acid] | 
